We go through three molecules from ChEMBL document CHEMBL1201862, “PubChem BioAssay data set” (2004).

Activity calls are given as the source filed them.

In one assay the target is T1, Hexokinase HKDC1 (Homo sapiens, UniProt Q2TB90).
T1 sequence (Q2TB90 whole entry): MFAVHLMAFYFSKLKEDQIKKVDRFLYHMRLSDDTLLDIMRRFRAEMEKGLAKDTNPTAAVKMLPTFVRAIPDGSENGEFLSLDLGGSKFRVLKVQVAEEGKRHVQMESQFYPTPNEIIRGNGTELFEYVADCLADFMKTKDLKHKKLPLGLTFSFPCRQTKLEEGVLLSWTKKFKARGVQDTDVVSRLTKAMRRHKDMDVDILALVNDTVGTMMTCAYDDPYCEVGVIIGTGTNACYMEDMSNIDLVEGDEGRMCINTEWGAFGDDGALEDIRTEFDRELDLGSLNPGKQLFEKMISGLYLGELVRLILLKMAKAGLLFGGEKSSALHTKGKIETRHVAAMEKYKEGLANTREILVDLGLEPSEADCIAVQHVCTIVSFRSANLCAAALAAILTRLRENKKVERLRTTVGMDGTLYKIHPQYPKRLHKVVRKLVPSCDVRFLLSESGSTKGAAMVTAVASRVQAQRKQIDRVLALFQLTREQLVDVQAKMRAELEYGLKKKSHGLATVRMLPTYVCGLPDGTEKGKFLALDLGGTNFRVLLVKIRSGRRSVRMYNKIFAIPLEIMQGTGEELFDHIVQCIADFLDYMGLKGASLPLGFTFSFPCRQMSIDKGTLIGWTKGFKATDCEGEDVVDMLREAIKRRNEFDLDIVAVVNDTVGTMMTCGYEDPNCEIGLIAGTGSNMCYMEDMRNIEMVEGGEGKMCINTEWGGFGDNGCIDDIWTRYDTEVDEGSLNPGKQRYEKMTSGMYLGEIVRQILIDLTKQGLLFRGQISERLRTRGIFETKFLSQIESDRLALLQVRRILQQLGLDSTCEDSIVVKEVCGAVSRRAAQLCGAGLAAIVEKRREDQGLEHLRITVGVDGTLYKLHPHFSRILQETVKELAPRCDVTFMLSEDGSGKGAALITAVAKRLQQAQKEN
The assay can be described thus: inhibition of HKDC1 glucose phosphorylation – biochemical, W721R variant, dose response (AID 504729). It counts as functional.

In assay [1] the target is T2, Apoptotic protease-activating factor 1 (Homo sapiens, UniProt O14727).
T2 sequence (O14727 whole entry): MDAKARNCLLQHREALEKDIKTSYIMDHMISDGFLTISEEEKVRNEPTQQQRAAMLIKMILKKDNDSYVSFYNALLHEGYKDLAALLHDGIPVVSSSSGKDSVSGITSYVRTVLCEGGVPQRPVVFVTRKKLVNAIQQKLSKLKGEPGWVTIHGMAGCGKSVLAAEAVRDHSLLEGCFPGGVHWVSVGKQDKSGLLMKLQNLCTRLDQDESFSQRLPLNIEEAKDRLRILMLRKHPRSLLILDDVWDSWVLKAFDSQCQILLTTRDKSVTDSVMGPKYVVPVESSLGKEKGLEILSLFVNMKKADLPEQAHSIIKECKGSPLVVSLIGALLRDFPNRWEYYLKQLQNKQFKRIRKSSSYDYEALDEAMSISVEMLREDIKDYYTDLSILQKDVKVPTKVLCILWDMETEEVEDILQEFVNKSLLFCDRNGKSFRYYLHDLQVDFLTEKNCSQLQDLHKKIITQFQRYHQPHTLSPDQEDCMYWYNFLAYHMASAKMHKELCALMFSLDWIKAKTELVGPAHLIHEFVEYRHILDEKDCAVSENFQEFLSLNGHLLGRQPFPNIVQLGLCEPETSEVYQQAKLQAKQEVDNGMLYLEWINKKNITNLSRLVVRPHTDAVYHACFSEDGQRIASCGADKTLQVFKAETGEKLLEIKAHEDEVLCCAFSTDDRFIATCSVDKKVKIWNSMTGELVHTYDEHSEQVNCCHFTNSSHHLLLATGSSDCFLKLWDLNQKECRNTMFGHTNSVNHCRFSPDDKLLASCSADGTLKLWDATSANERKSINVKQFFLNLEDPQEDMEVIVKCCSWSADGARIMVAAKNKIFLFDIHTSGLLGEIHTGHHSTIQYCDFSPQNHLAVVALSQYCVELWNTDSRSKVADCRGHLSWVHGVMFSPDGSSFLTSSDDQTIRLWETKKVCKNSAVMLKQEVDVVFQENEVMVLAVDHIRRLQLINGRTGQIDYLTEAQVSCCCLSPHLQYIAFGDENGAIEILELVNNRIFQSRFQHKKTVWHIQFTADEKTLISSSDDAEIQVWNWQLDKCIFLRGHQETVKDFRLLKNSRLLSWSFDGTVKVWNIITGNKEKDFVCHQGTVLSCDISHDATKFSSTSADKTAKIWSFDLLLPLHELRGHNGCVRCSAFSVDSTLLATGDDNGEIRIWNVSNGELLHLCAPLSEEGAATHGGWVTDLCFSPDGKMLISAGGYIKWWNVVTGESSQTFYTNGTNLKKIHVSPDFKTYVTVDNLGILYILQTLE
Format: functional.

Assay [2] addresses Protein kinase C theta type (Homo sapiens, UniProt Q04759). In words: Navigating the Kinome. Panel member name: PRKCQ. Format: functional.
Assay [3] concerns the target ALK tyrosine kinase receptor (Homo sapiens, UniProt Q9UM73). Format: functional.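 Note: ALK tested as one member of a kinase panel screen.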
Assay [4] has as its target Serine/threonine-protein kinase 17A (Homo sapiens, UniProt Q9UEE5). Format: functional.
Assay [5] concerns the target Death-associated protein kinase 3 (Homo sapiens, UniProt O43293). It counts as functional.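 Note: measured as one member of a kinome-wide profiling panel.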
The target in assay [6] is MAP kinase-interacting serine/threonine-protein kinase 2 (Homo sapiens, UniProt Q9HBH9). Format: functional.
Assay [7] deals with Platelet-derived growth factor receptor alpha (Homo sapiens, UniProt P16234). In words: Navigating the Kinome. Panel member name: PDGFRA. Format: functional.
For assay [8], the target named is RAC-alpha serine/threonine-protein kinase (Homo sapiens, UniProt P31749). Format: functional.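 Note: AKT1 affinity measured as one member of a kinome-wide kinase profiling panel.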
For assay [9], the target named is Tyrosine-protein kinase Fyn (Homo sapiens, UniProt P06241). It counts as functional.
Assay [10] has as its target Serine/threonine-protein kinase DCLK1 (Homo sapiens, UniProt O15075). It counts as functional.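 Note: affinity for DCLK1 (listed as DCAMKL1) measured as one member of a kinome-wide kinase profiling panel.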
For assay [11], the target named is BDNF/NT-3 growth factors receptor (Homo sapiens, UniProt Q16620). It counts as functional.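 Note: NTRK2 measured as one member of a broad kinome-wide kinase profiling panel.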
For assay [12], the target named is Lymphokine-activated killer T-cell-originated protein kinase (Homo sapiens, UniProt Q96KB5). Format: functional.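 Note: value comes from a kinase panel screen in which TOPK was one of the panel members.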
In another assay the target is Perilipin-1/ABHD5 (Homo sapiens, UniProt O60240+Q8WTS1). The assay can be described thus: Luminescence-based biochemical high throughput dose response assay for inhibitors of the interaction of the lipase co-activator protein, abhydrolase domain containing 5 (ABHD5) with perilipin-1 (PLIN1) (2K validation set). [Related pubchem assays (depositor defined):AID493027, AID493057].

Assay [13] can be described thus: Potency on glucagon-like peptide 1 release, dose-response in NCI-H716 cell line, half maximal inhibitory concentration (AID 1117344). It counts as functional, cell-based.

Sequence of ALK tyrosine kinase receptor (Q9UM73 whole entry): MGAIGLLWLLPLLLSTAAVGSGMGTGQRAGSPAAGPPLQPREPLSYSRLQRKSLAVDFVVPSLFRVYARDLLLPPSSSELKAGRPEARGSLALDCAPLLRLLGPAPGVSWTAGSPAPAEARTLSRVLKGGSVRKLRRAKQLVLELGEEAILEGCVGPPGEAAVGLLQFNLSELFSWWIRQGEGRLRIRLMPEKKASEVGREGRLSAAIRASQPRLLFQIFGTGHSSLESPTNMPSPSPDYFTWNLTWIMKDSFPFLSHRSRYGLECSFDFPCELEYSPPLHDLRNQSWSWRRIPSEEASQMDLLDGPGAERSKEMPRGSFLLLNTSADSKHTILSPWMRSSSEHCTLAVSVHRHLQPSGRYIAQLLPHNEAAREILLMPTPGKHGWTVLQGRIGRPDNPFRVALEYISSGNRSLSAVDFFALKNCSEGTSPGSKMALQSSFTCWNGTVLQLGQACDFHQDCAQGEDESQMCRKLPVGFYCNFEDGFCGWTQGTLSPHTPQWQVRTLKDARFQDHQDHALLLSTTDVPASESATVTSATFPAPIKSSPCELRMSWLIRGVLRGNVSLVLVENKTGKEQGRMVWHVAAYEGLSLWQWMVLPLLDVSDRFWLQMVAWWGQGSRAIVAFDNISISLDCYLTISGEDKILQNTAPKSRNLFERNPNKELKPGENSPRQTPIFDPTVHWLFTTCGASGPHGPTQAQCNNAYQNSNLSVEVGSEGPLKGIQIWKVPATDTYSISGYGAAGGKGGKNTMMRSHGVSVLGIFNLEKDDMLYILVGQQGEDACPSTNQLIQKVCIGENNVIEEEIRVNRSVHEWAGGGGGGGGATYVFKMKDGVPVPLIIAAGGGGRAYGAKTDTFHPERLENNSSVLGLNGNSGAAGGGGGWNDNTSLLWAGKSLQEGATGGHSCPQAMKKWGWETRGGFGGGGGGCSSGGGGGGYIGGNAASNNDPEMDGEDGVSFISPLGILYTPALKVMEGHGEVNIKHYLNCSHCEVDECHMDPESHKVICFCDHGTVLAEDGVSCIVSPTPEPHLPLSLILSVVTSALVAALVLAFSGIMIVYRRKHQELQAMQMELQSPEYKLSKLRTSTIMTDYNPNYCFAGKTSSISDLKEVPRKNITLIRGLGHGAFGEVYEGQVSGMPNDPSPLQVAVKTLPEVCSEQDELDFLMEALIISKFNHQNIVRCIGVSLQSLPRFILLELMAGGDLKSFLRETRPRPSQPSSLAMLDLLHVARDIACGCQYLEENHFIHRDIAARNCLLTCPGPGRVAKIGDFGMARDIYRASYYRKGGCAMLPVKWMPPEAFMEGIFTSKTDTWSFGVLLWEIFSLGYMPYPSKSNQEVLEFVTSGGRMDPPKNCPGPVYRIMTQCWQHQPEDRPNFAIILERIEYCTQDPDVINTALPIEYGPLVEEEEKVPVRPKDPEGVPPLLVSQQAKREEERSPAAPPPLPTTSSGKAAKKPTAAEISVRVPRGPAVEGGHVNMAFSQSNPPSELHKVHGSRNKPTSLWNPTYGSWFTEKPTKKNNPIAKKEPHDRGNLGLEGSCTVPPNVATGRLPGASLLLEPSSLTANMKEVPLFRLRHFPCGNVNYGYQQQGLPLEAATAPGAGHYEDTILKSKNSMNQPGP
Sequence of Lymphokine-activated killer T-cell-originated protein kinase (Q96KB5 whole entry, the tested form may be a part): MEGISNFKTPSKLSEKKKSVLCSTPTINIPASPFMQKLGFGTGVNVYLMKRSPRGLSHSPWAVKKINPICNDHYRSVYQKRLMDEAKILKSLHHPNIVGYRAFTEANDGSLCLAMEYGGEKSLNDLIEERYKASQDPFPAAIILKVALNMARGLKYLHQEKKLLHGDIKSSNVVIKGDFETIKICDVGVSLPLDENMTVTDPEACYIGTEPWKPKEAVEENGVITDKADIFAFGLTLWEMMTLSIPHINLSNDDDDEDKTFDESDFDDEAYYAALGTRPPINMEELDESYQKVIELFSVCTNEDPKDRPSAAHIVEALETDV
Sequence of Serine/threonine-protein kinase 17A (Q9UEE5 whole entry): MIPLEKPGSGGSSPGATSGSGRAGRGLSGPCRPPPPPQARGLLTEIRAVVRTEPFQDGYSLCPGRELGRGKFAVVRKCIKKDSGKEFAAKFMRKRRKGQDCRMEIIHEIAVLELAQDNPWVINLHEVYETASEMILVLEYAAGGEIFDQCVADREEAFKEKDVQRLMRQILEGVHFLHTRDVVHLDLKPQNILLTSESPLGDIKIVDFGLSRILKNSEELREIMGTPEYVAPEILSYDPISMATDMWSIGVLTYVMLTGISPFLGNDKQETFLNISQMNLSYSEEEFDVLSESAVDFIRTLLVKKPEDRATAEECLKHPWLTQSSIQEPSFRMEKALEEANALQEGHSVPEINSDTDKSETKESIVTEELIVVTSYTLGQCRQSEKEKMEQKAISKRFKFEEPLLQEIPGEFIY
Sequence of Platelet-derived growth factor receptor alpha (P16234 whole entry): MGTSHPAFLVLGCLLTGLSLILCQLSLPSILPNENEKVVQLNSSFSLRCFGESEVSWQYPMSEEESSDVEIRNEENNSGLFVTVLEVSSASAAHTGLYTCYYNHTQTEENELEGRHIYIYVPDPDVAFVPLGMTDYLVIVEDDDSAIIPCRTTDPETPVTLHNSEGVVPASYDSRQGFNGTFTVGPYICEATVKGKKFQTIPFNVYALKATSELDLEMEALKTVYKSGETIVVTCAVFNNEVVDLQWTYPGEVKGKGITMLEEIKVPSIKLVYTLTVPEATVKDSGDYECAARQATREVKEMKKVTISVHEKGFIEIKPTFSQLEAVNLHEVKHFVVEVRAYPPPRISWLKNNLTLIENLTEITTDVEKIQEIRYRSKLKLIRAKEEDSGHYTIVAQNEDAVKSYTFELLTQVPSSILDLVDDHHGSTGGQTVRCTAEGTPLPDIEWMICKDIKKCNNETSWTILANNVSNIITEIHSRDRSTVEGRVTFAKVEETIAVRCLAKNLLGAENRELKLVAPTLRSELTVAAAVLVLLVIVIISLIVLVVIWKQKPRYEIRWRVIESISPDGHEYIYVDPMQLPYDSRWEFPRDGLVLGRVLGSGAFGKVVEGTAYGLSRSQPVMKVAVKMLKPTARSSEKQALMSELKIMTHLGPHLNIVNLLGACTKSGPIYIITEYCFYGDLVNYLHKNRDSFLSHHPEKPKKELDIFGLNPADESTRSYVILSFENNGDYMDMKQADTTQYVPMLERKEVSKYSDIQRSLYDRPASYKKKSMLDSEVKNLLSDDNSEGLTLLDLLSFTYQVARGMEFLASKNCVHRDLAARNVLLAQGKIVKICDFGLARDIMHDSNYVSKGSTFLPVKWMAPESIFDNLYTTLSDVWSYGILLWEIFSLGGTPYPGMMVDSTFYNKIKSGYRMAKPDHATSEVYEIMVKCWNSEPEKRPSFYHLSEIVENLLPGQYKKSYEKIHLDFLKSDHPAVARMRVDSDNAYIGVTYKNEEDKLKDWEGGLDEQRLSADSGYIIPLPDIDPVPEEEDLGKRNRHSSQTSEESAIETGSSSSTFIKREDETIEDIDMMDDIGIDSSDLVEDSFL
Sequence of Serine/threonine-protein kinase DCLK1 (O15075 whole entry): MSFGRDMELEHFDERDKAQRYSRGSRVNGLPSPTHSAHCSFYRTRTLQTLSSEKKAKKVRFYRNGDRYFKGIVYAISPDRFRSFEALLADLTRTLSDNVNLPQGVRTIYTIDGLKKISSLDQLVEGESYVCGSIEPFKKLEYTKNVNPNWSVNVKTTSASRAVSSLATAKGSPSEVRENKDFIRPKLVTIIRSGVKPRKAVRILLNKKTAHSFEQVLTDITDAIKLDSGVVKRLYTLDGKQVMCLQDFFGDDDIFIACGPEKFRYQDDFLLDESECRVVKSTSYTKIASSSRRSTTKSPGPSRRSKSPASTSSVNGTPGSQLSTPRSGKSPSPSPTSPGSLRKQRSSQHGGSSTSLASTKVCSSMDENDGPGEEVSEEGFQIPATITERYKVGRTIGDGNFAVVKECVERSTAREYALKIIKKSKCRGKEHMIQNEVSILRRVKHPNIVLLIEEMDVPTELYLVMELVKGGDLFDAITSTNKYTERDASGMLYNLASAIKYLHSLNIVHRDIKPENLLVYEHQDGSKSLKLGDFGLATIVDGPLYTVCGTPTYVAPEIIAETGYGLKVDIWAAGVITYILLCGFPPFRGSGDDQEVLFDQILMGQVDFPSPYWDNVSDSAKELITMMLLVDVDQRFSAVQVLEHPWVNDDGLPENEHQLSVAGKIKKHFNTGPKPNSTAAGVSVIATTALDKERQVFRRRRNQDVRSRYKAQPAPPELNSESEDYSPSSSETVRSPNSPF
Sequence of Protein kinase C theta type (Q04759 whole entry): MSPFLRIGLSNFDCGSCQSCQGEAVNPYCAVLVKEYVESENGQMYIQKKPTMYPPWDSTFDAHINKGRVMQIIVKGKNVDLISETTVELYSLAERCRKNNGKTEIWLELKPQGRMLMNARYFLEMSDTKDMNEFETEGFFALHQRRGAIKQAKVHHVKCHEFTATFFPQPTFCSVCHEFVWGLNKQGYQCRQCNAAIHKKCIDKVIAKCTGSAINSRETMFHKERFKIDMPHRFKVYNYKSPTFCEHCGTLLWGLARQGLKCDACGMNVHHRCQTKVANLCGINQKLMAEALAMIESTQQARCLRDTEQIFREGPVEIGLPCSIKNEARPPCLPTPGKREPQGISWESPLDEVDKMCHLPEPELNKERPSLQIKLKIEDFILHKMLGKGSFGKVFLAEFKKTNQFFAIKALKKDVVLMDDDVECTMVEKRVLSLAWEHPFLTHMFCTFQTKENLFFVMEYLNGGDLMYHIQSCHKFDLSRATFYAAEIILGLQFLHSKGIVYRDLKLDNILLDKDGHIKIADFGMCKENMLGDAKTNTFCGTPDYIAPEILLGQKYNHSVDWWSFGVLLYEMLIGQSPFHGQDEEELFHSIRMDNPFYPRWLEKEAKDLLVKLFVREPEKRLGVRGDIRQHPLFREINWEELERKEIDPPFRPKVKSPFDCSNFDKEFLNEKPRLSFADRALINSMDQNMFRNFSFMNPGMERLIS

Regarding `O=C1C=C(N2CCOCC2)c2ccccc2C1=O`, the IC50 on Hexokinase HKDC1 was 1.02 µM (active); in [1] it was 1.27 µM (active).
For `N#Cc1ccc2[nH]c(O)c(-c3ccc(CN4CCOCC4)cn3)c2c1` [AZD-1080], the Ki in assay [2] was > 2.51 µM (inactive); in [3], > 3.98 µM (inactive); in assay [4], 0.501 µM (active); in assay [5], > 3.98 µM (inactive); in [6], > 10 µM (inactive); in assay [7], > 2.51 µM (inactive). The Ki was > 7.94 µM (inactive) in [8]; > 3.98 µM (inactive) in [9]; > 10 µM (inactive) in assay [10]; > 3.98 µM (inactive) in assay [11]; > 10 µM (inactive) in assay [12].
As to `CCc1oc2ccccc2c1C(=O)c1cc(Br)c(O)c(Br)c1` [BENZBROMARONE], the IC50 was 15 µM (inactive) on Perilipin-1/ABHD5 and > 40 µM (inactive) in [13].

What is called IC50 is the point on the concentration scale where inhibition reaches its midpoint. What is called Ki is a measure of affinity in units of concentration, obtained from inhibition or displacement.
